Columns and labels:
[1] = tested on: C57BL/6 mice with cuprizone induced demyelination; experiment: Cuprizone induced demyelination / re-myelination model (rotarod, immunofluorescence, electron microscopy); type: in vivo, mouse
Description: Cuprizone at 0.2% induces demyelination in the corpus callosum by 3 weeks, with maximum demyelination at 5-6 weeks. 8-week-old C57BL/6 mice purchased from Jackson Laboratories or 8-week old Mgat5^+/− C57BL/6 mice were treated with 0.2% Cuprizone (Sigma) mixed into milled rodent chow for 6 weeks for the active phase treatment and 5 weeks for the recovery treatment. During active phase treatment, GIcNAc (1 mg/mL) in drinking water or just drinking water (control) was provided for the last 3 weeks of Cuprizone treatment. For the recovery phase treatment, GIcNAc in drinking water or control was provided after Cuprizone treatment had been stopped. Mice were anesthetized and underwent cardiac perfusion with 4% paraformaldehyde in PBS or 4% paraformaldehyde plus 0.5% glutaraldehyde in Sodium cacodylate buffer for immunofluorescence or electron microscopic analysis respectively. Brains were then fixed overnight in perfusion solution
One day prior to Cuprizone treatment, mice were trained on the rotarod by allowing them to run three 5-minute trials at a constant 30 rotations per minute (RPM). Mice then underwent weekly testing during Cuprizone and GIcNAc treatment on an accelerating rotarod starting at 4 rpm increasing to 40 rpm over 5 minutes. Latency for mice to fall was recorded. If a mouse was not running on the rotarod by holding on for 3 turns, this was considered a fall. For the active phase treatment, one trial was run every week. For the recovery phase treatment, 3 trials were run for each mouse each week and latencies were averaged. As expected with Cuprizone treatment performance degraded as treatment progressed.
(§1) For neural stem cell (NSC) immunofluorescence, whole neurospheres were seeded onto laminin-coated coverslips (Neuvitro) in proliferation medium. After 24 hours, proliferation media was removed and replaced with differentiation medium (same components as proliferation medium but excluding EGF, bFGF, and heparin) to induce differentiation. For analysis of mouse brains, brains were incubated in 30% sucrose for at least 72 hours, embedded in OCT (Tissue-tek), frozen for at least 48 hours at −80° C., and then cut at 40 microns on a cryostat. Multiple sections from −1 bregma to −2.5 bregma were then stained with antibodies for MBP (1:100; MAB386, Millipore), Olig2 (1:200; AB9610, Millipore), CC1 (1:100; OP90, Millipore), degraded MBP (1:200, AB5864, Millipore) and Amyloid Precursor Protein (APP, 1:200; clone 22C11). After overnight incubation with primary antibody, tissues were washed and incubated with secondary antibodies: goat anti-rat Alexa-fluor 488 (1:200, Thermofisher), goat anti-rabbit TxRd (1:200, Thermofisher). APP is a marker for neuro-axonal damage while co-staining for CC1 and Olig2 are markers of mature oligodendrocytes. In order to examine the amount of myelin, slices were incubated in Fluoromyelin (1:300; F34651, Thermofisher) for 45 minutes. Images were acquired on a Keyence fluorescence microscope. Mean fluorescence intensity of the medial corpus callosum was measured using ImageJ.
Three mice from each treatment group (control and GIcNAc) were selected randomly for EM analysis (before other investigations were performed). Portions of these brains from 0 to −1 bregma were rinsed in 0.1 M cacodylate buffer overnight and again for 15 min. the next day. 2×1 mm blocks of the corpus callosum were dissected out and post-fixed with 1% osmium tetroxide in 0.1 M cacodylate buffer for 1 hour, rinsed in ddH20, dehydrated in increasing serial dilutions of ethanol (70%, 85%, 95%, 100%×2) for 10 min each, put in propylene oxide (intermediate solvent) for 2×10 min, incubated in propylene oxide/Spurr's resin (1:1 mix) for 1 h, and then in Spurr's resin overnight. The blocks were put in a fresh change of resin in flat embedding molds the next day and polymerized overnight at 60° C. The blocks were sectioned at 1 μm using a Leica Ultracut UCT ultramicrotome. […]

newborn PL/J mice = experiment: Primary myelination in newborn pups, GIcNAc given to pregnant/lactating mothers in drinking water; type: in vivo, mouse
Description: GIcNAc treatment of mouse pups—GIcNAc (1 mg/mL) in drinking water was provided to pregnant PLJ mothers or mothers who recently delivered pups and were nursing their young. After the treatment period, pups were anesthetized with isoflurane and cardiac perfused with PBS. Pup and fetal brains were removed and homogenized by trituration using glass pipettes in PBS with 5% Fetal Bovine Serum (FBS).
Cells were then stained with antibodies and analyzed by flow cytometry using antibodies described herein. For immunofluorescence analysis of pup brains, pups were quickly decapitated, brains harvested and fixed in 4% paraformaldehyde overnight.
as §1
To assess whether oral GIcNAc promotes oligodendrogenesis in vivo in the absence of inflammation, primary myelination was examined in mice during the early perinatal period. GIcNAc or vehicle was provided to pregnant/lactating female mice from E12.5, postnatal day 3 (P3) or P5 through to P8. Indeed, oral GIcNAc increased N-glycan branching in PDGFRα^+ cells as well as the number of pre-oligodendrocytes (PDGFRα^+O4^+), immature oligodendrocytes (PDGFRα-O4^+) and mature oligodendrocytes (MBP*), with little effect on the number of OPC's ([…]) (FIG. 2B and FIG. 6A).

[2] = tested on: blasting/activated CD25+CD4+ T cells; experiment: Phase 1 trial: N-glycan branching in T cells by L-PHA flow cytometry; type: in vivo, human; details: for average increase of L-PHA binding in blasting/activated CD25+CD4+ T cells: oral
Description: Based on its immunomodulatory effects, a FDA approved (IND 122235) dose escalation was carried out, open-label NIH funded Phase 1 mechanistic clinical trial of oral GIcNAc in MS patients (RRMS and PMS) on glatiramer acetate and not in acute relapse, with the primary endpoint an increase in N-glycan branching in T cells. This endpoint was used as a surrogate marker for GIcNAc's biological activity. Three doses were evaluated: 1 g TID (3 g total, n=13), 2 g TID (6 g total, n=18) and 4 g TID (12 g total, n=16). Subjects had baseline blood drawn weekly four times, then started on oral GIcNAc with 4 weekly blood draws (FIG. 8A).
To assess the primary endpoint (increased N-glycan branching in T cells), flow cytometry was used to assess binding of the plant lectin L-PHA (Phaseolus vulgaris leukoagglutinin) to T cells. L-PHA is a highly sensitive and specific measure of N-glycan branching. L-PHA binding was increased in blasting/activated CD25^+CD4^+ T cells in the 12 g (p=0.0065) and 6 g (p=0.037) but not the 3 g cohort, with average increases of 7%, 3% and 1.7% respectively (FIGS. 8H and 8I); the latter indicative of a dose response.

[3] = GIcNAc only after cuprizone stopped, wildtype 2 weeks, Mgat5+/- 1 or 4 weeks
[4] = Mgat5+/- mice, 4 weeks GIcNAc after 5 weeks cuprizone
[5] = wildtype mice, GIcNAc during final 3 weeks of 6-week cuprizone exposure
[6] = mothers treated from E12.5, P3 or P5 to P8, pup brains

Q: For `CC(=O)N[C@H]1C(O)O[C@H](CO)[C@@H](O)[C@@H]1O` (stereo partly shown) [GIcNAc, N-acetylglucosamine], which “degraded MBP (dMBP)/myelin degeneration in the corpus callosum” value [1, 3] is on record?
A: Its value is “reducing”.

Q: What about the “levels of MBP in the corpus callosum” value [1, 3] of the same compound?
A: The value was “enhanced”.

Q: What about the “levels of myelin (fluoromyelin) in the corpus callosum” value [1, 3] of the same compound?
A: The value was “enhanced”.

Q: What about the “mature oligodendrocytes (CC1 Olig2+) in the corpus callosum” value [1, 3] of the same compound?
A: Its value is “enhanced”.

Q: And the “axon loss (electron microscopy)” value [1, 4]?
A: Its value is “reducing”.

Q: What about the “degree of myelination (g-ratio, electron microscopy)” value [1, 4] of the same compound?
A: Its value is “enhanced”.

Q: And the “number of degenerating and dystrophic/swollen axons (electron microscopy)” value [1, 4]?
A: The value was “reducing”.

Q: And the “number of myelinated axons (electron microscopy)” value [1, 4]?
A: Its value is “enhanced”.

Q: What about the “number of paranodes (electron microscopy)” value [1, 4] of the same compound?
A: Its value is “enhanced”.

Q: What about the “increase in fluoromyelin staining, 4 versus 1 week of GIcNAc treatment” value ([1]; Mgat5+/- mice, recovery phase) of the same compound?
A: Its value is roughly 2 fold.

Q: What about the “motor function (rotarod fall latency)” value ([1]; wildtype mice, GIcNAc during final 3 weeks of 6-week cuprizone (0.2%) exposure) of the same compound?
A: Its value is “prevented loss of motor function”.

Q: And the “MBP levels in the corpus callosum” value [1, 5]?
A: The value was “increasing”.

Q: And the “axonal damage (accumulation of amyloid precursor protein, APP) in the corpus callosum” value [1, 5]?
A: The value was “reducing”.

Q: What about the “primary myelination: staining for myelin (fluoromyelin)” value (newborn PL/J mice; P3-8) of the same compound?
A: Its value is “increased”.

Q: And the “primary myelination: staining for myelin basic protein (MBP)” value (newborn PL/J mice; P3-8)?
A: Its value is “increased”.

Q: And the “N-glycan branching in PDGFRα+ cells” value (newborn PL/J mice; [6])?
A: Its value is “increased”.

Q: And the “number of OPC's (PDGFRα−O4+)” value (newborn PL/J mice; [6])?
A: Its value is “little effect”.

Q: What about the “number of immature oligodendrocytes (PDGFRα-O4+)” value (newborn PL/J mice; [6]) of the same compound?
A: The value was “increased”.

Q: What about the “number of mature oligodendrocytes (MBP)” value (newborn PL/J mice; [6]) of the same compound?
A: The value was “increased”.

Q: What about the “number of pre-oligodendrocytes (PDGFRα+O4+)” value (newborn PL/J mice; [6]) of the same compound?
A: The value was “increased”.

Q: What about the “L-PHA binding in activated CD25+CD8+ T cells, resting CD25-CD4+ and CD25-CD8+ T cells and activated/resting CD19+ B cells” value ([2]; oral GIcNAc, data not shown) of the same compound?
A: The value was “no increase”.

Q: And the “average increase of L-PHA binding in blasting/activated CD25+CD4+ T cells” value ([2]; 3 g cohort (not significant))?
A: Its value is 1.7%.

Q: And the “average increase of L-PHA binding in blasting/activated CD25+CD4+ T cells” value ([2]; 6 g cohort (p=0.037))?
A: The value was 3%.

Q: What about the “average increase of L-PHA binding in blasting/activated CD25+CD4+ T cells” value ([2]; 12 g cohort (p=0.0065)) of the same compound?
A: The value was 7%.

Q: What about the “L-PHA binding to blasting/activated CD25+CD4+ T cells during the washout period vs pre-GIcNAc or during GIcNAc” value ([2]; post-GIcNAc, 6 g and 12 g cohorts) of the same compound?
A: Its value is “no significant difference”.

From patent publication US20240415858A1, “PROMOTING MYELINATION BY N-ACETYLGLUCOSAMINE AND MODULATION OF N-GLYCAN BRANCHING” (THE REGENTS OF THE UNIVERSITY OF CALIFORNIA, priority 2021, published 2024)
